Test results: patent publication US20150104426A1, “SKIN-CARE AGENT CONTAINING PLEUROTUS FERULAE FRUIT BODY EXTRACT OR PLEUROTUS FERULAE MYCELIUM EXTRACT” (AMI Cosmetic Co., Ltd., priority 2013, published 2015)
Values belong to the compound of their own block, whether it stands above or below them.

Columns and labels:
tyrosinase = assay: Inhibition of tyrosinase activity; format: biochemical, mushrooms; settings: 0.2 wt %; L-tyrosine substrate
Experimental: Tyrosinase is an enzyme which facilitates oxidation of a substance called “tyrosine” in vivo and aids in production of melanin. Tyrosinase was isolated from mushrooms and purified, and was obtained from Sigma Aldrich Corp. A 0.1 mg/mL solution of L-tyrosine as a substrate in a 0.05 M sodium phosphate buffer solution (pH 6.8) was prepared. […] The test tube containing the reaction solution was quenched in ice to stop the reaction and transmissivity at a wavelength of 475 nm was measured using a spectrophotometer. A group treated with 0.5 mL of a buffer solution, instead of the Pleurotus ferulae fruiting body extract, the Pleurotus ferulae mycelium extract or the Pleurotus ferulae mycelium culture was used as a control group, and arbutin, a well-known whitening agent, was used as a positive control group. In addition, inhibition of tyrosinase activity by the respective samples were calculated in accordance with the following Equation 3. Inhibition of tyrosinase activity (%)=100−[(absorbance of reference group/absorbance of control group)]×100 Equation 3

B16F1 melanin cells = assay: Inhibition of melanin synthesis in B16F1 melanin cells; format: cell-based, mice; settings: 0.2 wt %; B16F1, 72 hours
Experimental: B16F1 melanocytes used for the present test example were cell lines derived from mice, which secrete a black pigment called “melanin”. The effect on inhibition of melanin synthesis of B16F1 melanin cells was measured as follows. […] After culturing for 72 hours, the cells were removed from trypsin-EDTA, counted and collected by centrifugation. Melanin in cells was assayed using a slightly modified version of Lotan's method (R Lotan and D Lotan, Cancer Res, 40: 3345-3350, 1980). Cell pellets were washed with PBS once and homogenized, 1 mL of a buffer solution (50 mM sodium phosphate, pH 6.8, 1% Triton X-100, 2 mM PMSF) was added to the cells, and the cells were crushed by vortex for 5 minutes. Melanin extracted by addition of 1N NaOH (10% DMSO) to a cell residue obtained by centrifugation (3,000 rpm, 10 minutes) was dissolved, absorbance of melanin at 405 nm was measured using a microplate reader, melanin was assayed, and inhibition of melanin production (%) of the sample was measured. In addition, a group not treated with the Pleurotus ferulae fruiting body extract, the Pleurotus ferulae mycelium extract or the Pleurotus ferulae mycelium culture was used as a control group, arbutin well-known as a whitening agent was used as a positive control group, and inhibition of melanin synthesis (%) by B16F1 melanin cells was calculated in accordance with Equation 4. […]

[1] = Antioxidative effect, NBT method (xanthine/xanthine oxidase); format: biochemical; settings: sample 0.1 wt %
Experimental: In accordance with the NBT method, active oxygen is produced by xanthine and xanthine oxidase, and absorbance at a wavelength of 560 nm of a blue substance produced upon reaction between the active oxygen and nitro blue tetrazolium (NBT) is measured. In the present test example, an active oxygen scavenge rate was measured in accordance with the following method. In addition, BHT, a well-known antioxidant, was used as a positive control group.
2.4 mL of 0.05M sodium carbonate (Na2CO3), 0.1 mL of a 3 mM xanthine solution, 0.1 mL of a 3 mM EDTA solution, 0.1 mL of a BSA solution and 0.1 mL of a 0.72 mM NBT solution were added to vials, 0.025, 0.05, 0.1 and 0.25% by weight of sample solutions were added respectively thereto, followed by allowing to stand at 25° C. for 10 minutes. After standing, 0.1 mL of a xanthine oxidase solution was added to the each solution which was then rapidly stirred and cultured at 25° C. for 20 minutes. 0.1 mL of a 6 mM copper chloride (CuCl2) solution was added to the culture solution to stop the reaction. Absorbance (St) at 560 nm was measured. […] Absorbance (Bt) was measured in the same manner as above. Absorbance (Bo) of the blank of the sample solution was measured in the same manner as above using distilled water instead of the xanthine oxidase solution. In addition, active oxygen scavenge rate (%) was calculated by the following Equation 1. […]

[2] = Antioxidative effect, DPPH method; format: biochemical; settings: sample 0.1 wt %
Experimental: The DPPH method measures free radical scavenge activity based on reduction power using a free radical, called “DPPH (2,2-di(4-tert-octylphenyl)-1-picrylhydrazyl)”. In the present test example, decrease in absorbance caused by reduction of DPPH by a test substance was compared with an absorbance of a blank test solution, and free radical scavenge rate at a wavelength of 560 nm was measured. Measurement was performed as follows. In addition, BHT, a well-known antioxidant, was used as a positive control group.
0.025, 0.05, 0.1 and 0.25% by weight of different concentrations of the Pleurotus ferulae fruiting body extracts, the Pleurotus ferulae mycelium extracts and the Pleurotus ferulae mycelium cultures were prepared and pipetted into on 96-well plates, and DPPH prepared from a 100 μM methanol solution was added thereto such that the total volume of the solution reached 200 μl. The solution was allowed to stand at 37° C. for 30 minutes, absorbance (St) at 560 nm of the solution was measured and free radical scavenge activity (%) was calculated using the following Equation 2.
Free radical scavenge activity (%)=[…]×100 Equation 2 […]

[3] = tested on: Human keratinocytes HaCaT cell line; assay: Scavenging of active oxygen in cells after UVB (DCFH-DA); format: cell-based; settings: 0.01 wt %, UVB 20 mJ/cm^2
Experimental: A cell line used for the present test example was a Human keratinocytes HaCaT cell line obtained from Dr. Fusenig in the German Cancer Research Center. The cell line was seeded at a density of 2.0×10^4 cells per well into 96-well black plates for fluorescent measurement and cultured in DMEM (Dulbecco's Modified Eagle's Medium, FBS 10%, Gibco, USA) media containing penicillin and streptomycin at 37° C. in an atmosphere containing 5% CO2 for one day. […] Then, after 100 μl of different concentrates of HCSS was added to the test samples, fluorescence of DCF (dichlorofluorescein) initially oxidized with active oxygen was measured using a fluorescence plate reader (Ex: 485 nm, Em: 530 nm). Then, the samples were irradiated with UVB (20 mJ/cm^2), treated with 0.005, 0.01 and 0.02% by weight of the Pleurotus ferulae fruiting body extract, the Pleurotus ferulae mycelium extract and the Pleurotus ferulae mycelium culture and then measured for fluorescence using the fluorescence plate reader (Ex: 485 nm, Em: 530 nm). At this time, epigallocatechin gallate (EGCG) known to have potent antioxidative effects was used as a positive control group.

[4] = tested on: matrix metalloproteinase (MMP-1); assay: Repression of MMP-1 after ultraviolet irradiation (ELISA); format: cell-based; settings: 0.02 wt %; human dermal fibroblasts, UVA 6.3 J/cm^2, 24 hours
Experimental: After UV irradiation and addition of samples (Pleurotus ferulae fruiting body extract, Pleurotus ferulae mycelium extract or Pleurotus ferulae mycelium culture, retinol), enzyme-linked immunosorbent assay (ELISA) was carried out to measure concentration of matrix metalloproteinase (MMP-1). Human dermal fibroblasts were irradiated with UVA at an energy of 6.3 J/cm^2 in a UV chamber, and conditions of the dose of ultraviolet radiation and culture time which maximize expression of matrix metalloproteinase (MMP-1) in fibroblasts were established through preliminary testing. A negative control group was wrapped with a foil and exposed to UVA environment for the same time. Here, UVA dose was measured using a UV radiometer. The cells during irradiation of UVA were cultured in the medium previously used. After UVA irradiation, the cells were cultured in a fresh medium containing samples for 24 hours and the medium were coated on 96-well plates. […] The cells were reacted with anti-mouse IgG (whole mouse, alkaline phosphatase conjugated) as a secondary antibody for about 60 minutes, and an alkaline phosphatase substrate solution (1 mg/mL ρ-nitrophenyl phosphate in diethanolamine buffer solution) at room temperature for 30 minutes, and absorbance at 405 nm was measured using a microplate reader. […]

type 1 procollagen = assay: Promotion of type 1 procollagen biosynthesis in fibroblasts; format: cell-based; settings: 0.001 wt %; human dermal fibroblasts, 24 hours
Experimental: Human dermal fibroblasts isolated from infant epidermal tissues were obtained from Modern Tissue Technology (MTT, Korea) and cultured at 1×10^4 cell/cm2 in a DMEM/F-12 (3:1) medium containing 10% fetal bovine serum (FBS). The human dermal fibroblasts grown to about a confluence of 80% were sub-cultured at a split ratio of 1:3 four times and were then used for the testing.
For the test to measure the amount of procollagen, fibroblasts were cultured to a confluence of 90% or more on a 48-well plate, the Pleurotus ferulae fruiting body extract, the Pleurotus ferulae mycelium […], and after 24 hours, the amount of procollagen released in the medium was measured using a procollagen type-1C-peptide EIA kit (MK101, Takara, Japan). In addition, TGF-β was used as a positive control group.

Inhibition of tyrosinase activity (%) (tyrosinase): 54%
Compound: OC[C@H]1O[C@@H](Oc2ccc(O)cc2)[C@H](O)[C@@H](O)[C@@H]1O [Arbutin, arbutin]
Inhibition of melanin synthesis (%) (B16F1 melanin cells): 55%

Compound: Cc1cc(C(C)(C)C)c(O)c(C(C)(C)C)c1 [BHT]
Active oxygen scavenge rate (antioxidative effect, %) [1]: 89% | Free radical scavenge rate (antioxidative effect, %) [2]: 85%

Compound: O=C(O[C@@H]1Cc2c(O)cc(O)cc2O[C@@H]1c1cc(O)c(O)c(O)c1)c1cc(O)c(O)c(O)c1 [EGCG, epigallocatechin gallate]
Effect of scavenging active oxygen (%) [3]: 45%

Compound: CC1=C(/C=C/C(C)=C/C=C/C(C)=C/CO)C(C)(C)CCC1 [Retinol, retinol]
Repression of MMP-1 (%) [4]: 36%

Compound: TGF-β
Promotion of procollagen biosynthesis (%) (type 1 procollagen): 125%
